Common to all, as to format: physicochemical
Data set [1] in a line: Solubility in water (HPLC). The following applies: H2O, 37°C. The procedure: The vial was stirred and observed in a 37°C water bath. If the sample dissolved completely, more sample was added until undissolved material remained after rotary mixing. The sample vial was sealed and stirred in a 37°C water bath for 24h, then centrifuged. The supernatant was filtered and the solubility was measured by HPLC.

A short description of data set [2]: Dynamic solubility in biorelevant media (HPLC). The following applies: 37°C. The procedure: FaSSGF (Fasted State Simulated Gastric Fluid), FeSSGF (Fed State Simulated Gastric Fluid), FaSSIF (Fasted State Simulated Intestinal Fluid), and FeSSIF (Fed State Simulated Intestinal Fluid) are biorelevant media. These media better reflect the impact of the gastrointestinal physiological environment on drug release. Solubility tested in these media is closer to solubility in the human body environment.
The vial was stirred and observed in a 37°C water bath. If the sample dissolved completely, more sample was added until undissolved material remained after rotary mixing. The sample vial was sealed and stirred in a 37°C water bath for 24h, then centrifuged. The supernatant was filtered and the solubility was measured by HPLC. Table 13: Dynamic Solubility of Crystal Forms in Biorelevant Media

Data set [3] can be described thus: Stability of the crystal form under accelerated conditions (XRPD, HPLC). Conditions: for % Area: chemical stability. The procedure:
Solid samples separated under different conditions were evaluated for physical stability via XRPD testing for crystalline form and for chemical stability via HPLC testing for purity.
Appropriate amounts of crystal form I samples were taken and subjected to a stability experiment under accelerated conditions of 40 °C/75%RH/open/1 month. Physical stability was evaluated by XRPD testing. Table 14: Stability of crystal form I

Values after ≈ are worked out from the molar mass of the structure shown.

In general, solubility refers to the concentration that dissolves in the medium under given conditions. A high value points to a readily soluble substance.

Take `O=C(N[C@@H]1CCCC[C@H]1N1Cc2ccc(-c3nnc(C(F)F)o3)cc2S1(=O)=O)C(F)F` [Crystal Form I]: the solubility at 24 h worked out at 49.8 µg/mL (≈ 108 µM) in data set [1]; 51.9 µg/mL (≈ 112 µM) in data set [2] (FaSSGF); 96.2 µg/mL (≈ 208 µM) in data set [2] (FaSSIF); 55 µg/mL (≈ 119 µM) in data set [2] (FeSSGF); 87.5 µg/mL (≈ 189 µM) in data set [2] (FeSSIF). The solubility at 1 h in data set [2] (FaSSGF) amounted to 34.5 µg/mL (≈ 74.6 µM); in data set [2] (FeSSGF), 45.5 µg/mL (≈ 98.4 µM). In addition, in data set [3] (40 °C/75%RH/open/1 month), the “XRPD characteristic peaks (physical stability)” value was “remained unchanged”. In addition, the “% Area” value came out at 99.51 % Area in data set [3] (40 °C/75%RH/open/1 month, HPLC peak of Compound of formula (I)) and 99.51 % Area in data set [3] (T0, HPLC peak of Compound of formula (I)).

Source of the values: patent EP4786468A1, “CRYSTALLINE FORM OF HDAC6 INHIBITOR AND PREPARATION METHOD THEREFOR” (Suzhou Genhouse Bio Co., Ltd., priority 2023, dated 2025).
